# Experimental data: patent publication US10780106B2, “Method for treating NASH accompanied by fibrosis using Cl-IB-MECA” (CAN-FITE BIOPHARMA LTD., priority 2015, dated 2020)
# “Also recorded” adds a separate entry of the source.
# Columns and labels:
# NASH mice [1] = assay: Example 1: STZ plus high fat diet NASH mouse model, effect of CF102 on liver weight, ALT, TG and liver histology; assay type: in vivo, Male C57BL/6 mice
# Procedure: Male C57BL/6 mice were used as a murine experimental model.
# The A3AR agonist, 2-Chloro-N^6-(3-iodobenzyl)-adenosine-5′-N-methyluronamide (Cl-IB-MECA, referred to herein by the abbreviated name CF102), was synthesized for Can-Fite BioPharma by Albany Molecular Research Inc, Albany. N.Y., USA. CF102 was used in liquid form, dissolved in dimethyl sulfoxide (DMSO), used as the vehicle. Dissolved CF102 and the DMSO vehicle were administered at the same volume.
# Male C57BL/6 mice were injected with a single subcutaneous injection of 200 μg streptozotocin (STZ) two days after birth and feeding with high fat diet after 4 weeks of age. […] Treatment was given between 6 weeks of age and 9 weeks of age.
# After Study termination, liver weight was measured and Liver-to-Body weight ratio was calculated.
# Plasma ALT and liver triglyceride were measured and histological analyses were made on the liver sections for the following: Hematoxylin & Eosin staining for estimation of NAFLD Activity score and Sirius red staining for estimation of fibrosis area.
# hepatocyte = details: as disclosed in WO09/050707; cited from earlier work
# NASH mice [2] = assay: Example 2: STZ plus high fat diet mouse model, effect of CF102 on NAS score; assay type: in vivo; details: CF102 200 μg/kg orally thrice daily, 6 to 9 weeks of age; compared to the vehicle
# Procedure: Male mice were injected with 200 μg/animal STZ two days after birth. From 4 weeks of age, the mice were fed with high fat diet. At 6 weeks of age, the mice were randomized into vehicle and CF102 200 μg/kg treatment groups. Treatment was given orally, thrice daily. Termination was performed after 9 weeks. Hematoxylin & Eosin staining was used for estimation of NAFLD Activity.
# [3] = Hematoxylin & Eosin liver histology, compared to the Vehicle
# [4] = NASH mice, CF102 orally thrice daily from 6 to 9 weeks of age, vs vehicle
structure (smiles),measurement,setting,value
"CNC(=O)[C@H]1O[C@@H](n2cnc3c(NCc4cccc(I)c4)nc(Cl)nc32)[C@H](O)[C@@H]1O [CF102, 2-Chloro-N^6-(3-iodobenzyl)-adenosine-5′-N-methyluronamide]",NAFLD activity score,"NASH mice [1]; CF102 200 μg/kg, FIG. 4",decrease in NAFLD activity score
same,ballooning (liver sections),NASH mice [1]; [3],significant decrease
same,lobular inflammation (liver sections),NASH mice [1]; [3],significant decrease
same,steatosis (liver sections),NASH mice [1]; [3],significant decrease
same,liver-to-body weight ratio,"NASH mice [1]; NASH livers in mice, CF102 orally thrice daily from 6 to 9 weeks of age, vs vehicle, p=0.05",reduced liver-to-body weight ratio; also recorded: reduction of liver-to-body weight ratio
same,Triglycerides levels in the liver,NASH mice [1]; [4],decrease
same,plasma ALT level,NASH mice [1]; [4],decreased ALT levels; also recorded: decrease in plasma ALT level
same,hepatocyte proliferation,hepatocyte,induce hepatocyte proliferation
same,inflammation NAS (NAFLD Activity Score) score,NASH mice [2],reduced the inflammation NAS; also recorded: reducing the inflammation NAS score
